{"source": "patent US9382295B2", "about": "“Cyclic depsipeptide compounds and their uses” (Cypralis Limited, priority 2012, dated 2016)", "key": {"[1]": {"test": "Rat pharmacokinetics, iv and po dosing, whole blood and plasma", "assay_type": "in vivo", "details": "for AUC(0-inf) / AUC(0-t) / Cmax / half-life / clearance / Vd / bioavailability / Tmax: mean; for half-life: read-out: half-life (T1/2) (converted); for clearance: read-out: systemic clearance (converted); for Vd: read-out: volume of distribution at the terminal phase; for bioavailability: po 10 mg/kg vs iv 1 mg/kg", "protocol": "Rat pharmacokinetic data was obtained for example 2, following iv dosing at 1 mg/kg and po dosing at 10 mg/kg and individual analysis of plasma and whole blood samples at various time points was carried out."}, "[2]": {"biological_target": "cyclophilin D (Cyp D) (Homo sapiens, UniProt P30405)", "sequence (P30405 30-207)": "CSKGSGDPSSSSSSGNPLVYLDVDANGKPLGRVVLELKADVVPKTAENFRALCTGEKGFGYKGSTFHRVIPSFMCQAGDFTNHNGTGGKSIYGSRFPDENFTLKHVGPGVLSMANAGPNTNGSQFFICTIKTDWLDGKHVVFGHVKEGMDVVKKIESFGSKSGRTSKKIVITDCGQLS", "test": "Protease-free PPIase assay, cyclophilin D", "assay_type": "biochemical", "in_short": "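Cis-trans isomerization of a succinimide-peptide substrate (60 µM final) by 2 nM enzyme was followed at 330 nm in 35 mM HEPES pH 7.8 with 50 µM DTT, stirred at 10.0 °C, DMSO ≤0.5%. First-order rate constants minus background were fitted against inhibitor concentration to give Ki.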"}, "[3]": {"biological_target": "T1, calcineurin/cyclophilin A (Homo sapiens, UniProt P62937+P63098+Q08209)", "T1 construct": "purchased Enzo Life Sciences (calcineurin, calmodulin); Sigma (CypA) BML-AK804; C3805", "T1 sequence (P63098 whole entry, other chains not shown)": "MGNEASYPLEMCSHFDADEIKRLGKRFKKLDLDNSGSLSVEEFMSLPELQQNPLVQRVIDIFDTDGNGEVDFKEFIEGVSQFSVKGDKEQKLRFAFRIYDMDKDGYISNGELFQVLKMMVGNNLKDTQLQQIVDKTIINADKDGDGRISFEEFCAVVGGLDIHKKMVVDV", "T1 sequence (P62937 whole entry, other chains not shown)": "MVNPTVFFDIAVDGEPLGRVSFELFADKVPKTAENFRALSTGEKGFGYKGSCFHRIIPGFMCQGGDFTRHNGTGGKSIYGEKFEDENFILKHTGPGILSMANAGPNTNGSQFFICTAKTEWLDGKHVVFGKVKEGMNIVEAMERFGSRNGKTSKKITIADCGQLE", "test": "Calcineurin phosphatase (CaN) assay in the presence of Cyp A", "assay_type": "biochemical", "details": "inhibitor in 1:1 complex with Cyp A; read-out: CaN + CypA (IC50 in the calcineurin/cyclophilin A assay)", "source_text": "**Calcineurin Phosphatase (CaN) Assay The calcineurin phosphatase assay is a means for estimating the immunosuppressive potential of a test compound. Calcineurin is a serine-threonine protein phosphatase that on activation dephosphorylates members of the nuclear factor of activated T cells (NFAT), which are important in T lymphocyte activation. […] To investigate the immunosuppressive potential of exemplary compounds of Formula 1, which are novel cycloundecadepsipeptide compounds, their ability to inhibit calcineurin activity was measured in the presence of Cyp A. The CaN assay kit used is based on a colorimetric assay for measuring calcineurin phosphatase activity, and it is commercially available (Enzo Life Sciences and Calbiochem). Calmodulin is also required for calcineurin activity and RH phosphopeptide is used as an efficient peptide substrate for calcineurin. […] The detection of free phosphate released is based on the classic Malachite green assay. Enzo Life Sciences CaN Assay Kit: BML-AK804 2× assay buffer: 100 mM Tris, pH7.5, 200 mM NaCl, 12 mM MgCl2, 1 mM DTT, 0.05% NP-40, 1 mM CaCl2 Calmodulin (Human, Recombinant): was thawed on ice, diluted 1:50 with 2× assay buffer, and then stored on ice. Calcineurin: was thawed quickly, stored on ice immediately, diluted 1:12.5 with 1× assay buffer, and then stored on ice. R-II Substrate: 915 μL ultrapure water (UPW) was added to the 1.5 mg vial substrate to give a final concentration of 0.75 mM. Inhibitors: 2.5 mM inhibitor in 100% DMSO. Cyp A: recombinant human CypA (Sigma C3805), 1 mg/ml; Recombinant 6-his tagged CypA prepared by the Univ. of Edinburgh was also used. […] Inhibitor dilutions: inhibitor compounds were diluted in UPW in polypropylene low-binding 96 well plates at 5x the final assay concentration. For samples ‘without Cyp A’, a 4-point dilution series of the inhibitor was prepared in duplicate to obtain a final assay concentration of 10, 1, 0.1 and 0.01 μM. […] Cs A inhibitor controls were also prepared to obtain a final concentration of 10 μM Cs A with and without 10 μM Cyp A. Assay Setup: using the half area 96 well plates supplied with the kit, 10 μl UPW was added to duplicate wells to provide the non-inhibited control. 10 μl of the inhibitor or the inhibitor/Cyp A complex was added to the appropriate sample wells. 25 μl of the 2× assay buffer with CaM was added to all wells, then 5 μl of CaN was added to all wells (40 U per well final concentration) except duplicate ‘no calcineurin blank’ wells to which 5 μL 1× assay buffer was added. […] The reaction was started by the addition of 10 μl RII-peptide (0.15 mM final concentration). The reaction was allowed to proceed at 30° C. for a time period in which the reaction is linear for about 60 minutes. The reaction was then terminated by adding 100 μl of the Malachite Green reagent. […] The data were analyzed by subtracting ‘no Calcineurin blank’ from all the absorbance readings and plotting the background corrected absorbances against Log10 inhibitor concentration. A sigmoidal-dose response curve was fitted to the data using GraphPad Prism Software. […] It exerts its immunosuppressive activity by binding to cyclophilin A to form a complex, which then binds to calcineurin and thereby inhibits calcineurin activity."}}, "note": "Read-outs that look alike come from different tables or passages of the source."}
{"smiles": "CC(C)CC1NC(=O)[C@H](CC(C)C)N(C)C(=O)CN(C)C(=O)C([C@@H](C)O)NC(=O)C([C@H](O)[C@H](C)CCN2CCOCC2)N(C)C(=O)C(C(C)C)N(C)C(=O)C(CC(C)C)NC(=O)C(CC(C)C)N(C)C(=O)C(C(C)C)OC(=O)C(C)NC(=O)C(CC(C)C)N(C)C1=O", "note": "(stereo in doubt) [Example 2, cyclo-[(3R,4R,5S)-4-(hydroxy)-3-methyl-5-(methylamino)-1-N-morpholino-hexanoic acid-Thr-Sar-MeLeu-Leu-MeLeu-Ala-D-Hiv-MeLeu-Leu-MeVal]]", "values": [{"measurement": "blood plasma ratio", "setting": "[1]; intravenous, 1 mg/kg, from volumes of distribution in plasma and whole blood, read-out: difference in blood to plasma ratio", "value": "~3"}, {"measurement": "systemic clearance relative to hepatic blood flow in rats (3.31 L/hr/kg)", "setting": "[1]; plasma, iv 1 mg/kg", "value": 1.26, "unit": "fold"}, {"measurement": "volume of distribution relative to total body water (0.67 L/kg) in rats", "setting": "[1]; plasma, iv 1 mg/kg", "value": 44.69, "unit": "fold"}, {"measurement": "AUC(0-inf)", "setting": "[1]; plasma, iv 1 mg/kg", "value": 239, "unit": "ng·h/mL"}, {"measurement": "AUC(0-t)", "setting": "[1]; plasma, iv 1 mg/kg", "value": 197, "unit": "ng·h/mL"}, {"measurement": "Cmax", "setting": "[1]; plasma, iv 1 mg/kg", "value": 275, "unit": "ng/mL"}, {"measurement": "half-life", "setting": "[1]; plasma, iv 1 mg/kg", "value": 4.96, "unit": "h"}, {"measurement": "clearance", "setting": "[1]; plasma, iv 1 mg/kg", "value": 69.7, "unit": "mL/min/kg"}, {"measurement": "Vd", "setting": "[1]; plasma, iv 1 mg/kg", "value": 29.9, "unit": "L/kg"}, {"measurement": "bioavailability", "setting": "[1]; plasma", "value": 95.9, "unit": "%"}, {"measurement": "AUC(0-inf)", "setting": "[1]; plasma, po 10 mg/kg", "value": 2290, "unit": "ng·h/mL"}, {"measurement": "AUC(0-t)", "setting": "[1]; plasma, po 10 mg/kg", "value": 2250, "unit": "ng·h/mL"}, {"measurement": "Tmax", "setting": "[1]; plasma, po 10 mg/kg", "value": 2, "unit": "h"}, {"measurement": "Cmax", "setting": "[1]; plasma, po 10 mg/kg, read-out: Cmax", "value": 328, "unit": "ng/mL"}, {"measurement": "half-life", "setting": "[1]; plasma, po 10 mg/kg", "value": 4.4, "unit": "h"}, {"measurement": "systemic clearance as share of hepatic blood flow in rats (3.31 L/hr/kg)", "setting": "[1]; whole blood, iv 1 mg/kg", "value": 35.0, "unit": "%"}, {"measurement": "volume of distribution relative to total body water (0.67 L/kg) in rats", "setting": "[1]; whole blood, iv 1 mg/kg", "value": 15.40, "unit": "fold"}, {"measurement": "AUC(0-inf)", "setting": "[1]; whole blood, iv 1 mg/kg", "value": 859, "unit": "ng·h/mL"}, {"measurement": "AUC(0-t)", "setting": "[1]; whole blood, iv 1 mg/kg", "value": 827, "unit": "ng·h/mL"}, {"measurement": "Cmax", "setting": "[1]; whole blood, iv 1 mg/kg", "value": 643, "unit": "ng/mL"}, {"measurement": "half-life", "setting": "[1]; whole blood, iv 1 mg/kg", "value": 6.14, "unit": "h"}, {"measurement": "clearance", "setting": "[1]; whole blood, iv 1 mg/kg", "value": 19.3, "unit": "mL/min/kg"}, {"measurement": "Vd", "setting": "[1]; whole blood, iv 1 mg/kg", "value": 10.3, "unit": "L/kg"}, {"measurement": "bioavailability", "setting": "[1]; whole blood", "value": 70.1, "unit": "%"}, {"measurement": "AUC(0-inf)", "setting": "[1]; whole blood, po 10 mg/kg", "value": 6020, "unit": "ng·h/mL"}, {"measurement": "AUC(0-t)", "setting": "[1]; whole blood, po 10 mg/kg", "value": 5930, "unit": "ng·h/mL"}, {"measurement": "Tmax", "setting": "[1]; whole blood, po 10 mg/kg", "value": 2, "unit": "h"}, {"measurement": "Cmax", "setting": "[1]; whole blood, po 10 mg/kg, read-out: Cmax", "value": 678, "unit": "ng/mL"}, {"measurement": "half-life", "setting": "[1]; whole blood, po 10 mg/kg", "value": 4.03, "unit": "h"}, {"measurement": "Ki", "setting": "[2]", "value": 6.5, "unit": "nM"}, {"measurement": "IC50", "setting": "[3]", "value": "> 1000", "unit": "nM"}]}
